Results on 31 compounds are retold here after US11655246B2, “Aminothiazole compounds as inhibitors of CTPS1” (STEP PHARMA S.A.S., priority 2017, dated 2023).

Counter-ions that a name gives are not always drawn.

The target in this assay is T1, human CTPS1 (Homo sapiens, UniProt P17812).
T1 construct: purchased Proteros biostructures GmbH
T1 sequence (P17812 1-591): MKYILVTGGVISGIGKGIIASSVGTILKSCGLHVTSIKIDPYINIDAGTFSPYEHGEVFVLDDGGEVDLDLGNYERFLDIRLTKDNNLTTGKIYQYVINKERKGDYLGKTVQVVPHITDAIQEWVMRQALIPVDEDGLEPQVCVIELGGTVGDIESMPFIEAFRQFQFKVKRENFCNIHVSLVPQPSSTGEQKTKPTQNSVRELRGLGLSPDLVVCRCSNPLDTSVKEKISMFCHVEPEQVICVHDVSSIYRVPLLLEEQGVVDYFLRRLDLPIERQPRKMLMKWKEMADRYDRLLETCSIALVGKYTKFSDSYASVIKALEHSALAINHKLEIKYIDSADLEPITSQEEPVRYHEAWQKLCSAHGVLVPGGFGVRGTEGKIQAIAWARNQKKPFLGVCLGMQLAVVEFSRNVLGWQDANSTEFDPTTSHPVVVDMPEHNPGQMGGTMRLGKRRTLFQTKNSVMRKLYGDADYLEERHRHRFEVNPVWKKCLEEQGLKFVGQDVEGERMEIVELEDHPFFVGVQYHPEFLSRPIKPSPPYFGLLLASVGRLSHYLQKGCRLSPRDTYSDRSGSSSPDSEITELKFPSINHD
The assay is described as follows: Human CTPS1 enzyme inhibition (ADP-Glo Max assay). Type of assay: biochemical. The settings on record: Table 18, additional potency data, 25° C., read-out: CTPS1 (Human CTPS1 Enzyme Inhibition data grouped by potency range). The procedure, abridged:
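ADP-Glo Max luminescence detection of ATP-to-ADP conversion by the enzyme, in 50 mM Tris, 10 mM MgCl2, 0.01% Tween-20, pH 8.0, with 2 mM L-cysteine added fresh. Enzyme preincubated with compound 10 minutes at 25° C. Percentage inhibition calculated per compound concentration.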
Regarding `COC(C(=O)Nc1ccc(-c2cncc(C(F)(F)F)n2)cc1F)c1csc(NS(=O)(=O)C2CC2)n1` (stereo not shown) [T408, 2-(2-(cyclopropanesulfonamido)thiazol-4-yl)-N-(2-fluoro-4-(6-(trifluoromethyl)pyrazin-2-yl)phenyl)-2-methoxyacetamide], the IC50 is less than 100 nM.

On to `CCOc1cncc(-c2ccc(NC(=O)C(OC)c3csc(NS(=O)(=O)C4CC4)n3)c(F)c2)n1` (stereo not shown) [T409, 2-(2-(cyclopropanesulfonamido)thiazol-4-yl)-N-(4-(6-ethoxypyrazin-2-yl)-2-fluorophenyl)-2-methoxyacetamide], for which the IC50 was less than 100 nM.

Take `COC(C(=O)Nc1ccc(-c2cncc(OC(C)C)n2)cc1)c1csc(NS(=O)(=O)C2CC2)n1` (stereo not shown) [T411, 2-(2-(cyclopropanesulfonamido)thiazol-4-yl)-N-(4-(6-isopropoxypyrazin-2-yl)phenyl)-2-methoxyacetamide]: the IC50 was less than 100 nM.

`NC(C(=O)Nc1ccc(-c2cncc(C(F)(F)F)n2)cn1)c1csc(NS(=O)(=O)C2CC2)n1` (stereo not shown) [T417, 2-Amino-2-(2-(cyclopropanesulfonamido)thiazol-4-yl)-N-(5-(6-(trifluoromethyl)pyrazin-2-yl)pyridin-2-yl)acetamide hydrochloride]: the IC50 lay within 100 to 1000 nM.

In the case of `NC(C(=O)Nc1ccc(-c2cncc(C(F)(F)F)n2)cc1F)c1csc(NS(=O)(=O)C2CC2)n1` (stereo not shown) [T418, 2-Amino-2-(2-(cyclopropanesulfonamido)thiazol-4-yl)-N-(2-fluoro-4-(6-(trifluoromethyl)pyrazin-2-yl)phenyl)acetamide], the IC50 is 100 to 1000 nM.

For the compound `CCOc1cncc(-c2ccc(NC(=O)C(N)c3csc(NS(=O)(=O)C4CC4)n3)c(F)c2)n1` (stereo not shown) [T419, 2-Amino-2-(2-(cyclopropanesulfonamido)thiazol-4-yl)-N-(4-(6-ethoxypyrazin-2-yl)-2-fluorophenyl)acetamide hydrochloride], the IC50 was less than 100 nM.

In the case of `CN(C)C(C(=O)Nc1ccc(-c2cncc(C(F)(F)F)n2)cc1F)c1csc(NS(=O)(=O)C2CC2)n1` (stereo not shown) [T420, 2-(2-(Cyclopropanesulfonamido)thiazol-4-yl)-2-(dimethylamino)-N-(2-fluoro-4-(6-(trifluoromethyl)pyrazin-2-yl)phenyl)acetamide], the IC50 was less than 100 nM.

Consider `CCOc1cncc(-c2ccc(NC(=O)C(c3csc(NS(=O)(=O)C4CC4)n3)N(C)C)c(F)c2)n1` (stereo not shown) [T421, 2-(2-(Cyclopropanesulfonamido)thiazol-4-yl)-2-(dimethylamino)-N-(4-(6-ethoxypyrazin-2-yl)-2-fluorophenyl)acetamide], for which the IC50 is less than 100 nM.

In the case of `CCOc1cncc(-c2ccc(NC(=O)C(C)(C)c3csc(NS(=O)(=O)CC4CC4)n3)c(F)c2)n1` [T433], the IC50 was less than 100 nM.

In the case of `CCOc1cncc(-c2cnc(NC(=O)C(CCOC)c3csc(NS(=O)(=O)C4CC4)n3)c(F)c2)n1` (stereo not shown) [T435], the IC50 was less than 100 nM.

Consider `CCOc1cncc(-c2ccc(NC(=O)C(CCOC)c3csc(NS(=O)(=O)C4CC4)n3)nc2)n1` (stereo not shown) [T436], for which the IC50 was less than 100 nM.

Take `COCCC(C(=O)Nc1ccc(-c2cncc(C(F)(F)F)n2)cc1)c1csc(NS(=O)(=O)C2CC2)n1` (stereo not shown) [T437]: the IC50 was less than 100 nM.

For the compound `CCOc1cncc(-c2cnc(NC(=O)C(CC)c3csc(NS(=O)(=O)C4CC4)n3)c(C)c2)n1` (stereo not shown) [T438], the IC50 is less than 100 nM.

In the case of `CCOc1cncc(-c2ccc(NC(=O)C(CC)c3csc(NS(=O)(=O)C4CC4)n3)c(Cl)c2)n1` (stereo not shown) [T439], the IC50 is less than 100 nM.

As for `CCOc1cncc(-c2ccc(NC(=O)C(CC)c3csc(NS(=O)(=O)C4CC4)n3)c(C#N)c2)n1` (stereo not shown) [T440], the IC50 is less than 100 nM.

Take `CCOc1cncc(-c2ccc(NC(=O)C(CC)c3csc(NS(=O)(=O)C4CC4)n3)c(C)c2)n1` (stereo not shown) [T441]: the IC50 was less than 100 nM.

For the compound `CCOc1cncc(-c2ccc(NC(=O)C(CC)c3csc(NS(=O)(=O)C4CC4)n3)c(OC(F)(F)F)c2)n1` (stereo not shown) [T442], the IC50 is less than 100 nM.

With `CCOc1cncc(-c2ccc(NC(=O)C(CC)c3csc(NS(=O)(=O)C4CC4)n3)c(OC)c2)n1` (stereo not shown) [T443], the IC50 was less than 100 nM.

Consider `CCNc1cncc(-c2ccc(NC(=O)C(CC)c3csc(NS(=O)(=O)C4CC4)n3)cc2)n1` (stereo not shown) [T444, 2-(2-(Cyclopropanesulfonamido)thiazol-4-yl)-N-(4-(6-(ethylamino)pyrazin-2-yl)phenyl)butanamide], for which the IC50 was less than 100 nM.

Consider `CCOc1cncc(-c2cnc(NC(=O)C(OC)c3csc(NS(=O)(=O)C4CC4)n3)c(F)c2)n1` (stereo not shown) [T445], for which the IC50 was less than 100 nM.

For the compound `CCOc1cncc(-c2ccc(NC(=O)C(OC)c3csc(NS(=O)(=O)C4CC4)n3)nc2)n1` (stereo not shown) [T446], the IC50 is less than 100 nM.

As for `COC(C(=O)Nc1ccc(-c2cncc(F)c2)cc1C(F)(F)F)c1csc(NS(=O)(=O)C2CC2)n1` (stereo not shown) [T447], the IC50 is less than 100 nM.

Take `COC(C(=O)Nc1ccc(-c2cncc(C(F)(F)F)c2)cc1F)c1csc(NS(=O)(=O)C2CC2)n1` (stereo not shown) [T448]: the IC50 was less than 100 nM.

Regarding `CCOc1cncc(-c2ccc(NC(=O)C(OC)c3csc(NS(=O)(=O)C4CC4)n3)c(C(F)(F)F)c2)n1` (stereo not shown) [T449], the IC50 was less than 100 nM.

On to `CCOc1cncc(-c2ccc(NC(=O)C(OC)c3csc(NS(=O)(=O)C4CC4)n3)c(Cl)c2)n1` (stereo not shown) [T450], for which the IC50 is less than 100 nM.

With `CCOc1cncc(-c2ccc(NC(=O)C(OC)c3csc(NS(=O)(=O)C4CC4)n3)c(C#N)c2)n1` (stereo not shown) [T451], the IC50 is less than 100 nM.

`COC(C(=O)Nc1ccc(-c2cncc(C(F)(F)F)n2)cc1F)c1csc(NS(C)(=O)=O)n1` (stereo not shown) [T452]: the IC50 is less than 100 nM.

As for `CCOc1cncc(-c2cc(F)c(NC(=O)C(OC)c3csc(NS(=O)(=O)C4CC4)n3)c(F)c2)n1` (stereo not shown) [T453], the IC50 was less than 100 nM.

Turning to `CCOc1cncc(-c2ccc(NC(=O)C(OC)c3csc(NS(=O)(=O)C4CC4)n3)c(OC(F)(F)F)c2)n1` (stereo not shown) [T454], the IC50 was less than 100 nM.

On to `CCOc1cncc(-c2ccc(NC(=O)C(OC)c3csc(NS(C)(=O)=O)n3)cc2)n1` (stereo not shown) [T455], for which the IC50 is less than 100 nM.

Turning to `COc1cncc(-c2ccc(N3CCC(c4csc(NS(=O)(=O)C5CC5)n4)C3=O)cc2)c1` (stereo not shown) [T463], the IC50 was 100 to 1000 nM.
